Patent US8742082B2, “Compositions and methods for influencing satiety, lipid metabolism, and fat utilization” (Nestec S.A., priority 2008, dated 2014)

Experiments:
Format in all cases: in vivo
[1] = system: Fatty acid transporter/cluster of differentiation 36 (FAT/CD 36); assay: Real-time PCR gene expression in peripheral tissues: FAT/CD36; conditions: proximal intestine; C57bl6j mice, high fat diet, 100 mg/kg/body weight in diet, 5 weeks
Procedure: (§1) The expression of 45 genes was measured by real-time PCR in peripheral tissues to identify genes that were differentially expressed in response to oral administration of oleoylethanolamide (OEA) or a non-hydrolysable OEA analog (KDS 5104), which affect satiety, lipid metabolism, fat utilization, food intake, and body fat mass.
(§2) Animals, diet, and experimental design. Adult male C57bl6j mice purchased at 8 weeks of age were individually housed and maintained ad libitum on high fat diet and water for 2 weeks. Seven mice were randomly allocated in 3 groups and fed with a high fat diet (lipids represented 50% of daily energy) for 2 weeks. For one kilogram, the composition of the high fat diet was: 235 g casein, 201 g saccharose, 3.5 g L-cystine, 85 g starch, 116 g maltodextrin, 60 g cellulose, 12 g vitamins mix (AIN-93M, UPAE, Jouy-en-Josas, France), 51.5 g mineral mix (AIN-93Vx, UPAE, Jouy-en-Josas, France), and 236 g lard. Then, either OEA or KDS 5104 was added to the diet at a concentration of 100 mg/kg/body weight. The mice were kept under treatment for 5 weeks.
(§3) Sampling. At the end of the experimental period, mice were sacrificed by blood drawing (cardiac puncture) after anesthesia with isoflurane. Plasma was obtained by centrifugation (1,000 g for 10 min at 4° C.). Mesenteric, epididymal, inguinal and peritoneal adipose depots, as well as liver, stomach, small intestine mucosa, pancreas, and gastrocnemian muscle were removed and frozen into liquid nitrogen. Plasma, urine, feces, and organ samples were kept at −80° C. until analysis.
(§4) RNA extraction and gene expression. Total RNA from liver, intestine mucous membrane, adipose tissues, gastrocnemian muscle, pancreas and stomach were extracted with TRIzol reagent (Invitrogen, Carlsbad, USA) according to the manufacturer's instruction. The RNA concentration was determined on nanodrop from the absorbance at 260 nm. Retro-transcription PCRs to synthesize cDNA were performed using an Applied Biosystem Thermal Cycler 2720 and Superscript II (Invitrogen, Carlsbad, USA) according to manufacturer's protocol. Real-time quantitative PCR (RT-qPCR) were performed on cDNA obtained as described above using a high through put system (Biomek 3000, Beckman & Coulter, Fullerton, USA) and a Lightcycler 480 (Roche/Hitachi, Basel, Switzerland) with SYBR Green Master mix+kit (Eurogentec, Philadelphia, USA). Primers for the selected genes were generated using online informatics assistance from the Lightcycler manufacturer (Roche). Databases used to identify the genes were (1) the NCBI database (GenBank) and (2) the IHOP (Information Hyperlinked over Protein) database (www.ihop-net.org/UniPub/iHOP/bng/). Values were expressed as ratio of RNA levels relative to control mice (diets with 0 mg of OEA/kg/body weight) using ΔΔ(Ct) (Livak K J & Schmittgen T D, 2001, Methods 25:402-8). Gene expression of the following genes was measured (abbreviation and GenBank Accession shown in parentheses).
(§5) Statistical analysis. Results are presented as means±standard error of the means (SEM). Statistical analysis of physiological parameters and gene expression data was performed by one-way ANOVA on Statview software (SAS Institute, Cary, USA). Daily food intake was analyzed using two-way ANOVA on Statview software. Statistical significance was set up at the P<0.05 level, the P<0.01 level and the P<0.001 level. For statistical analysis of the gene expression data, values were calculated relative to 18S expression for each mouse and gene.

Ghrelin = assay: Real-time PCR gene expression in peripheral tissues: ghrelin; conditions: stomach; C57bl6j mice, high fat diet, 100 mg/kg/body weight in diet, 5 weeks
Procedure: as §1
(§6) Animals, diet, and experimental design. Adult male C57bl6j mice purchased at 8 weeks of age were individually housed and maintained ad libitum on high fat diet and water for 2 weeks. Seven mice were randomly allocated in 3 groups and fed with a high fat diet (lipids represented 50% of daily energy) for 2 weeks. […]
(§7) RNA extraction and gene expression. […] The RNA concentration was determined on nanodrop from the absorbance at 260 nm. […] Real-time quantitative PCR (RT-qPCR) were performed on cDNA obtained as described above using a high through put system (Biomek 3000, Beckman & Coulter, Fullerton, USA) and a Lightcycler 480 (Roche/Hitachi, Basel, Switzerland) with SYBR Green Master mix+kit (Eurogentec, Philadelphia, USA). […] Values were expressed as ratio of RNA levels relative to control mice (diets with 0 mg of OEA/kg/body weight) using ΔΔ(Ct) (Livak K J & Schmittgen T D, 2001, Methods 25:402-8). Gene expression of the following genes was measured (abbreviation and GenBank Accession shown in parentheses). […]

[2] = system: Fatty Acid Synthase (FAS 1); assay: Real-time PCR gene expression in peripheral tissues: FAS; conditions: liver; C57bl6j mice, high fat diet, 100 mg/kg/body weight in diet, 5 weeks
Procedure: as §1, §6, §7

[3] = system: Stearoyl-Coenzyme A desaturase 1 (SCD 1); assay: Real-time PCR gene expression in peripheral tissues: SCD1; conditions: C57bl6j mice, high fat diet, 100 mg/kg/body weight in diet, 5 weeks
Procedure: as §1, §2, §3, §4
as §5, with “Results are presented as means±standard error of the means (SEM).” left out

[4] = system: Glucose transporter 4 (Glut 4); assay: Real-time PCR gene expression in peripheral tissues: Glut 4; conditions: muscle; C57bl6j mice, high fat diet, 100 mg/kg/body weight in diet, 5 weeks
Procedure: as §1, §6, §7

[5] = system: Sterol regulatory element binding protein-c 1 (SREBP 1c); assay: Real-time PCR gene expression in peripheral tissues: SREBP1c; conditions: C57bl6j mice, high fat diet, 100 mg/kg/body weight in diet, 5 weeks
Procedure: as §1, §2, §3, §4
as §5, with “Results are presented as means±standard error of the means (SEM).” left out

[6] = system: Phosphoenolpyruvate carboxykinase (PEP CK); assay: Real-time PCR gene expression in peripheral tissues: PepCK; conditions: liver; C57bl6j mice, high fat diet, 100 mg/kg/body weight in diet, 5 weeks
Procedure: as §1, §6, §7

[7] = system: Sterol regulatory element binding protein-C 2 (SREBP2 1); assay: Real-time PCR gene expression in peripheral tissues: SREBP2; conditions: liver; C57bl6j mice, high fat diet, 100 mg/kg/body weight in diet, 5 weeks
Procedure: as §1, §6, §7

AcylCoA oxidase (ACO) = assay: Real-time PCR gene expression in peripheral tissues: ACO; conditions: liver; C57bl6j mice, high fat diet, 100 mg/kg/body weight in diet, 5 weeks
Procedure: as §1, §6, §7

CPT1 = assay: Real-time PCR gene expression in peripheral tissues: CPT1; conditions: C57bl6j mice, high fat diet, 100 mg/kg/body weight in diet, 5 weeks
Procedure: as §1, §2, §3, §4
as §5, with “Results are presented as means±standard error of the means (SEM).” left out

[8] = system: Peroxisome proliferator activated receptor alpha (PPAR α); assay: Real-time PCR gene expression in peripheral tissues: PPAR α; conditions: proximal intestine; C57bl6j mice, high fat diet, 100 mg/kg/body weight in diet, 5 weeks
Procedure: as §1, §6, §7

[9] = system: N-acylsphingosine amidohydrolase-like (NAAA); assay: Real-time PCR gene expression in peripheral tissues: NAAA; conditions: C57bl6j mice, high fat diet, 100 mg/kg/body weight in diet, 5 weeks
Procedure: as §1, §2, §3, §4
as §5, with “Results are presented as means±standard error of the means (SEM).” left out

[10] = system: Fasting induced adipocyte factor (Fiaf); assay: Real-time PCR gene expression in peripheral tissues: Fiaf; conditions: C57bl6j mice, high fat diet, 100 mg/kg/body weight in diet, 5 weeks
Procedure: as §1, §2, §3, §4
as §5, with “Results are presented as means±standard error of the means (SEM).” left out

CCCCCCCC/C=C\CCCCCCCC(=O)N[C@H](C)CO [KDS 5104, (Z)—(R)-9-octadecenamide, N-(2-hydroxyethyl, 1-methyl)]
FAT/CD36 i, ratio of RNA levels relative to control mice [1]: 1.83
ghrelin s, ratio of RNA levels relative to control mice (Ghrelin): 1.04
FAS l, ratio of RNA levels relative to control mice [2]: 2.47
SCD 1 at ep, ratio of RNA levels relative to control mice ([3]; epidydimal adipose tissue): 1.24
SCD1 l, ratio of RNA levels relative to control mice ([3]; liver): −1.91
SCD 1 at per, ratio of RNA levels relative to control mice ([3]; peritoneal adipose tissue): 1.51
Glut 4 m, ratio of RNA levels relative to control mice [4]: 5.70
SREBP1c at ep, ratio of RNA levels relative to control mice ([5]; epidydimal adipose tissue): 1.00
SREBP1c l, ratio of RNA levels relative to control mice ([5]; liver): 1.47
SREBP1c at per, ratio of RNA levels relative to control mice ([5]; peritoneal adipose tissue): −1.35
PepCK l, ratio of RNA levels relative to control mice [6]: 1.55
SREBP2 l, ratio of RNA levels relative to control mice [7]: 1.13
ACO l, ratio of RNA levels relative to control mice (AcylCoA oxidase (ACO)): 1.15
CPT1 l, ratio of RNA levels relative to control mice (CPT1; liver): 1.06
CPT1 p, ratio of RNA levels relative to control mice (CPT1; pancreas): 1.80
CPT1 i, ratio of RNA levels relative to control mice (CPT1; proximal intestine): 1.63
PPAR α i, ratio of RNA levels relative to control mice [8]: 1.02
NAAA at ep, ratio of RNA levels relative to control mice ([9]; epidydimal adipose tissue): 1.38
NAAA at per, ratio of RNA levels relative to control mice ([9]; peritoneal adipose tissue): 1.52
NAAA i, ratio of RNA levels relative to control mice ([9]; proximal intestine): 1.60
Fiaf at ep, ratio of RNA levels relative to control mice ([10]; epidydimal adipose tissue): 0.46
Fiaf at per, ratio of RNA levels relative to control mice ([10]; peritoneal adipose tissue): 2.79
Fiaf i, ratio of RNA levels relative to control mice ([10]; proximal intestine): 0.68
